Measurements published in ChEMBL document CHEMBL1909046, “DrugMatrix in vitro pharmacology data”.

Experiments:
[1] = target: T1, Alpha-2A adrenergic receptor (Homo sapiens, UniProt P08913); type: cell membranes, Sf9, Membrane; further: in other assays of this panel Not Active means under 50% inhibition at 10 µM
T1 sequence (P08913 whole entry): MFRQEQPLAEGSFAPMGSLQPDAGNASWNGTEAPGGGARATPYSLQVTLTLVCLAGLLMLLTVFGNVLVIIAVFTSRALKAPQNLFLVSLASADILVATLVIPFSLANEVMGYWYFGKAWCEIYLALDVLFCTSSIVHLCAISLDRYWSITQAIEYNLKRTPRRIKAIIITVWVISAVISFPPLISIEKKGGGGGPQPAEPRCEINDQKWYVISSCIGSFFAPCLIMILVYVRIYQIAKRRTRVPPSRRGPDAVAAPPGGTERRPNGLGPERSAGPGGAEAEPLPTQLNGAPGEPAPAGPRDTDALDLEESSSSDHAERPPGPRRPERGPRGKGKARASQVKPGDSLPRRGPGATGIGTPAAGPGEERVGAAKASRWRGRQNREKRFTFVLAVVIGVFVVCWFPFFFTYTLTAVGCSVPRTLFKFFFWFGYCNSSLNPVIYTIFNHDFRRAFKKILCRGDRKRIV

[2] = target: T2, Calcitonin receptor (Homo sapiens, UniProt P30988); type: cell membranes, Membrane; conditions: t47d; further: in other assays of this panel Not Active means under 50% inhibition at 10 µM
T2 sequence (P30988 whole entry): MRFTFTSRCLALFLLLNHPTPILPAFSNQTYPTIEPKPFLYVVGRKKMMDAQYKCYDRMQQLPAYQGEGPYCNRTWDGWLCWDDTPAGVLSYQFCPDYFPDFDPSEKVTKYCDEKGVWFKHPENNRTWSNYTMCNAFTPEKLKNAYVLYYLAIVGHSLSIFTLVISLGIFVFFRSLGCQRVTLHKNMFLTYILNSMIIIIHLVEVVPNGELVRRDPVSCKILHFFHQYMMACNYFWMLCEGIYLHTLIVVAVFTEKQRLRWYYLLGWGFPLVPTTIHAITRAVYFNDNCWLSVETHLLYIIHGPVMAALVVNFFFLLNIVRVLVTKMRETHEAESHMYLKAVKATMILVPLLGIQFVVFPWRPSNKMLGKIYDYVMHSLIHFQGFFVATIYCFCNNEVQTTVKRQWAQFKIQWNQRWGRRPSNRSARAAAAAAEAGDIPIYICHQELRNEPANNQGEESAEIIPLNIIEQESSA

[3] = target: 5-hydroxytryptamine receptor 2B (Homo sapiens, UniProt P41595); type: cell membranes, CHO-K1, Membrane; conditions: cho-k1; further: in other assays of this panel Not Active means under 50% inhibition at 10 µM
[4] = target: Sigma non-opioid intracellular receptor 1 (Homo sapiens, UniProt Q99720); experiment: DRUGMATRIX: Sigma1 radioligand binding (ligand: [3H] Haloperidol); type: cell membranes, Jurkat, Membrane; conditions: jurkat; Not Active = under 50% inhibition at 10 µM
[5] = target: Vasopressin V1a receptor (Homo sapiens, UniProt P37288); type: cell membranes, Membrane; conditions: hek293; further: in other assays of this panel Not Active means under 50% inhibition at 10 µM
[6] = target: Prostaglandin G/H synthase 1 (Homo sapiens, UniProt P23219); experiment: biochemical; type: tissue-based, Platelet
[7] = DRUGMATRIX: Nicotinic Acetylcholine radioligand binding (ligand: [125I] Epibatidine); type: cell membranes, Membrane; conditions: imr-32; Not Active = under 50% inhibition at 10 µM
[8] = target: Nitric oxide synthase 1 (Rattus norvegicus, UniProt P29476); type: tissue-based, Cerebellum; further: in other assays of this panel Not Active means under 50% inhibition at 10 µM
[9] = target: T3, Cathepsin G (Homo sapiens, UniProt P08311); type: tissue-based; conditions: neutrophil
T3 sequence (P08311 whole entry): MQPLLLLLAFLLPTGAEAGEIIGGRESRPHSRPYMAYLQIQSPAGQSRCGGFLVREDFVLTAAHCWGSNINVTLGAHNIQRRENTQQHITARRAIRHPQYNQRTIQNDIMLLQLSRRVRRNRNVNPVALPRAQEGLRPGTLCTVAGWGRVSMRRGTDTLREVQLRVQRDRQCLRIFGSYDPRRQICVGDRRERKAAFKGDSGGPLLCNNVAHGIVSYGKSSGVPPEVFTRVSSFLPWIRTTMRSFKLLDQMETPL

[10] = target: Epidermal growth factor receptor (Homo sapiens, UniProt P00533); experiment: DRUGMATRIX: Protein Tyrosine Kinase, EGF Receptor enzyme inhibition (substrate: Poly(Glu:Tyr)); type: cell-based, Insect cells; conditions: Not Active = under 50% inhibition at 10 µM
[11] = target: T4, 5-hydroxytryptamine receptor 1A (Rattus norvegicus, UniProt P19327); type: cell membranes, Membrane; conditions: cho-k1; further: in other assays of this panel Not Active means under 50% inhibition at 10 µM
T4 sequence (P19327 whole entry): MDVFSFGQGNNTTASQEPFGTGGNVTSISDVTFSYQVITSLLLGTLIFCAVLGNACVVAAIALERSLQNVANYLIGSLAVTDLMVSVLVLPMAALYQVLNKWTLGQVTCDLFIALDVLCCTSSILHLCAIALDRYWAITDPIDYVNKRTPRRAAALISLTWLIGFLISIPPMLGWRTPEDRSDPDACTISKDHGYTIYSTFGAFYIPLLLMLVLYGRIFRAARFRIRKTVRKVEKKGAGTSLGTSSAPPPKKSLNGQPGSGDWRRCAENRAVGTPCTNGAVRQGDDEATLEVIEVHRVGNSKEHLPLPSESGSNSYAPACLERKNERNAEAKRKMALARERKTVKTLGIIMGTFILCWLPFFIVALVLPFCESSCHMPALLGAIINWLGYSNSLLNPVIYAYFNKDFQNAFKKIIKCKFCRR

[12] = target: Cytochrome P450 2E1 (Homo sapiens, UniProt P05181); conditions: bti-tn-5b1-4; further: in other assays of this panel Not Active means under 50% inhibition at 10 µM
Sequence of Cytochrome P450 2E1 (P05181 whole entry): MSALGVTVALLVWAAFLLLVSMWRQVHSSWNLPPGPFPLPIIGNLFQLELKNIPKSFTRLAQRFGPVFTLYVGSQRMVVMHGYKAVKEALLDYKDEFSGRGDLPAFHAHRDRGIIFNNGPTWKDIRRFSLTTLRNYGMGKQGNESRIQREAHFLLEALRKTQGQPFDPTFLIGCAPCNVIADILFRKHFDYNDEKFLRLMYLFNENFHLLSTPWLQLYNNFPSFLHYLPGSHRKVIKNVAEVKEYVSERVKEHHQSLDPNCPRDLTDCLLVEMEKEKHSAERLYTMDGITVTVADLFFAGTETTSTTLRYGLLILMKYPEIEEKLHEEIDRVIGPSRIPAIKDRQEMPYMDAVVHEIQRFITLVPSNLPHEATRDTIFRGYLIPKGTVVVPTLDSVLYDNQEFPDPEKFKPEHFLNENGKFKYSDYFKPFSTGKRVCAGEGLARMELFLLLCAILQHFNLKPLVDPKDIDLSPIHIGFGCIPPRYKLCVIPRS

Sequence of Prostaglandin G/H synthase 1 (P23219 whole entry): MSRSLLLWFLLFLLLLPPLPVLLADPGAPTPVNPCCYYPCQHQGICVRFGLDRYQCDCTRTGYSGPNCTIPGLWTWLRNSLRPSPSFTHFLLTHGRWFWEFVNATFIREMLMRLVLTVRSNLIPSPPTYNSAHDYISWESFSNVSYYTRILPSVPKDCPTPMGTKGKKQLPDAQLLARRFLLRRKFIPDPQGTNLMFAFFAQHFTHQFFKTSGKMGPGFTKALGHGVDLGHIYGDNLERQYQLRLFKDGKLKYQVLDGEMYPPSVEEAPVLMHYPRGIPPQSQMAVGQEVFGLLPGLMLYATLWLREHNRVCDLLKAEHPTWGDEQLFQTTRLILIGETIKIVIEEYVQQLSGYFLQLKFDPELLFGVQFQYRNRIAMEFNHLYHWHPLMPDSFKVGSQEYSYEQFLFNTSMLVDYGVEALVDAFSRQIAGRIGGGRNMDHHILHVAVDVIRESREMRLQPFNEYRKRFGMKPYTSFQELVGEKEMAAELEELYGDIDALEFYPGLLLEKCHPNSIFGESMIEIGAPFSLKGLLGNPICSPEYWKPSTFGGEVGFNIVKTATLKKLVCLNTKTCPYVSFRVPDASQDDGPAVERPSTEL
Sequence of Sigma non-opioid intracellular receptor 1 (Q99720 whole entry): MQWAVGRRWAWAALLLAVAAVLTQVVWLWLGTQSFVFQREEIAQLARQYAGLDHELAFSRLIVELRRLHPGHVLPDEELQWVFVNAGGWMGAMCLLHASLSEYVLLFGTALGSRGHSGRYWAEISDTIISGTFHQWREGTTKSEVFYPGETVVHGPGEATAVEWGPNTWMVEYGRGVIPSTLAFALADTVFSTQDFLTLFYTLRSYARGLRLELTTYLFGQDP
Sequence of Nitric oxide synthase 1 (P29476 whole entry): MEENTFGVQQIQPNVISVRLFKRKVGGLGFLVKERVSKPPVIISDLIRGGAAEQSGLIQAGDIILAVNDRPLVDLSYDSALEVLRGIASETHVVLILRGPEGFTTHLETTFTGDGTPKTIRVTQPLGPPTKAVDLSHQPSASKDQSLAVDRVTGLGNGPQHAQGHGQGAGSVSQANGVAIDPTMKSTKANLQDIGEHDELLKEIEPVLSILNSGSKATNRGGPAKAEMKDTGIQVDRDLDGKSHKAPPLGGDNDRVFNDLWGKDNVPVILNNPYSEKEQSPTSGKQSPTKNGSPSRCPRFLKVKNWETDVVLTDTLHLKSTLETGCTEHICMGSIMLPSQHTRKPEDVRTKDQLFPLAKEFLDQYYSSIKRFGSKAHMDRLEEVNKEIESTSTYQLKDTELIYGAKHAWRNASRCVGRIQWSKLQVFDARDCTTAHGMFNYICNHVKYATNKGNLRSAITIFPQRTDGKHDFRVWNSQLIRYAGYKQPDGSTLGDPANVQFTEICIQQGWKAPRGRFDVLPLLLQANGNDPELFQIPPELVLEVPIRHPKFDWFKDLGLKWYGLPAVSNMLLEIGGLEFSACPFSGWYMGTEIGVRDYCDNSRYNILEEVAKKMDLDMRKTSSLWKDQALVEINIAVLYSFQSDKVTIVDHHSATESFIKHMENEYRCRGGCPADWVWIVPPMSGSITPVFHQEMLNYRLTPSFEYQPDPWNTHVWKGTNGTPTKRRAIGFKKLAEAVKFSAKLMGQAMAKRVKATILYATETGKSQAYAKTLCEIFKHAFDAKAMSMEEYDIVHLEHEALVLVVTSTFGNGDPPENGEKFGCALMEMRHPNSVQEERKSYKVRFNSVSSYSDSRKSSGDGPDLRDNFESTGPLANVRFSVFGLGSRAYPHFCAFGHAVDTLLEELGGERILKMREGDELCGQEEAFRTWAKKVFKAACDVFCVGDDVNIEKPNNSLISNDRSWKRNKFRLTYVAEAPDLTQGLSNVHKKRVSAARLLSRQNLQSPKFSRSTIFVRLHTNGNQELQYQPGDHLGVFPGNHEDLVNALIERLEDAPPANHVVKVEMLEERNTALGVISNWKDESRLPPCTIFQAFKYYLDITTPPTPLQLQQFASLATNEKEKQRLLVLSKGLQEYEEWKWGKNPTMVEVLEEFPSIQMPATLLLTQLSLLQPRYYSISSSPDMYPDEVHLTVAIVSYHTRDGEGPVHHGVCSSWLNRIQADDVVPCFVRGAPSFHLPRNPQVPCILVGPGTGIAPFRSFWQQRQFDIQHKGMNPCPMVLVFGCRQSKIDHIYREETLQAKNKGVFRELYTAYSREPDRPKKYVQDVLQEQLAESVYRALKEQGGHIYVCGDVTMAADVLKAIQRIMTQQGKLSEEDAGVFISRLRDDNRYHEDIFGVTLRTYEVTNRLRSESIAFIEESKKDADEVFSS
Sequence of Vasopressin V1a receptor (P37288 whole entry): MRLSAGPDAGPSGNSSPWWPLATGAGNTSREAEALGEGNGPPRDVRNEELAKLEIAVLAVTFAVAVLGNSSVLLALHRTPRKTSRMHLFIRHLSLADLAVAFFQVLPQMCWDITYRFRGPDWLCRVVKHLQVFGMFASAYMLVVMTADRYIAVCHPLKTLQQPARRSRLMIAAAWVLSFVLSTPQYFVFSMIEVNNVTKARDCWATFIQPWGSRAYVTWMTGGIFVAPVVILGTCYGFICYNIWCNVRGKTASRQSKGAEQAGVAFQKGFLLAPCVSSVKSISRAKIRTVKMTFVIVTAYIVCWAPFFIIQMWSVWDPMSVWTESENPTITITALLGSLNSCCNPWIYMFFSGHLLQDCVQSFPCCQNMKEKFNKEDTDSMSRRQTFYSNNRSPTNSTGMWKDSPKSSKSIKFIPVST
Sequence of 5-hydroxytryptamine receptor 2B (P41595 whole entry): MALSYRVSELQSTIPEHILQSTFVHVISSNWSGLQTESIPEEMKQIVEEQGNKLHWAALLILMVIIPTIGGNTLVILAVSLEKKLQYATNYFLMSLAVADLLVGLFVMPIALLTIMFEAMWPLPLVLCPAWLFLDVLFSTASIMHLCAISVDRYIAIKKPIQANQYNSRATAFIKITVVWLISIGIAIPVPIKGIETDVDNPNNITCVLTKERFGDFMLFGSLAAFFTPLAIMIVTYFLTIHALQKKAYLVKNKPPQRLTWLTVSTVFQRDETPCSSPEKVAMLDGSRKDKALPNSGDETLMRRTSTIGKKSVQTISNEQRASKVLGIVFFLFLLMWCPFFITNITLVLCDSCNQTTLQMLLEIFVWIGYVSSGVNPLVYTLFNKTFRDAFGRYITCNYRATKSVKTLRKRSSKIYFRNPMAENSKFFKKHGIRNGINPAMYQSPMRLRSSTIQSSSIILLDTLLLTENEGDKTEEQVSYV
Sequence of Epidermal growth factor receptor (P00533 whole entry): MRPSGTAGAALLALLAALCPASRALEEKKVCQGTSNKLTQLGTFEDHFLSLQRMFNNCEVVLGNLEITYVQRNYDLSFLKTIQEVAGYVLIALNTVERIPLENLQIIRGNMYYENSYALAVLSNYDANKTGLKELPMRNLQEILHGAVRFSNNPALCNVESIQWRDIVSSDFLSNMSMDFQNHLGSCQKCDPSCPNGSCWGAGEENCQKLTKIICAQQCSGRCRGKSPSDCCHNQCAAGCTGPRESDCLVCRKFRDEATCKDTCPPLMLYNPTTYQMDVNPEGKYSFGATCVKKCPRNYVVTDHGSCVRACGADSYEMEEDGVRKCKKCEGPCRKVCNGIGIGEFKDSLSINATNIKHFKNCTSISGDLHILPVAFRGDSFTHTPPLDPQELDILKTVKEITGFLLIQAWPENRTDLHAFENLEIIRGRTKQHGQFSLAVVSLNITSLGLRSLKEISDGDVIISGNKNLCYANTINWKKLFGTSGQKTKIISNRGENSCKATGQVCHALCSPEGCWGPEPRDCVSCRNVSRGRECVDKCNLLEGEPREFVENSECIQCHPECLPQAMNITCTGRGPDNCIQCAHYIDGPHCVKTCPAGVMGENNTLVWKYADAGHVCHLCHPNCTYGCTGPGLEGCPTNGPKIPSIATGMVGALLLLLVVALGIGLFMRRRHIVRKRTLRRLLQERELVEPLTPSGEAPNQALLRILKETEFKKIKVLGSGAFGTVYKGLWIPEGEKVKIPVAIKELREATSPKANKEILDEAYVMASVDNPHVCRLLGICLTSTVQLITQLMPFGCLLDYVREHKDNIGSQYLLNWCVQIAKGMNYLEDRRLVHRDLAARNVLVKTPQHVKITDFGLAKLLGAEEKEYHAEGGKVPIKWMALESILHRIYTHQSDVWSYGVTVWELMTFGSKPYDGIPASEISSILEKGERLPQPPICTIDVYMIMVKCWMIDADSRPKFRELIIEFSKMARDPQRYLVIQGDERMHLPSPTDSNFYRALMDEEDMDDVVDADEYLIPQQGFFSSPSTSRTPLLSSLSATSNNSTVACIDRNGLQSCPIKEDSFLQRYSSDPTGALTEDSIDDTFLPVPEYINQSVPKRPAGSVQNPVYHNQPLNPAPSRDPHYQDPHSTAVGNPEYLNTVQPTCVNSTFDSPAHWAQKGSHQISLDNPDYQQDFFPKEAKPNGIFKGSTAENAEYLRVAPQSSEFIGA

SMILES	IC50 ([1]; sf9)	IC50 [2]	IC50 [3]	IC50 [4]	IC50 [5]	IC50 ([6]; platelet)	IC50 [7]	Ki [7]	IC50 [8]	IC50 [9]	IC50 ([10]; insect cells)	IC50 [11]	IC50 [12]	Ki [12]	IC50 ([1]; read-out: IC50) [µM]	Ki ([1]; read-out: Ki) [µM]	IC50 ([10]; read-out: IC50) [µM]	IC50 ([6]; read-out: IC50) [µM]
[H]/N=C(/N)N[C@H]1[C@H](O)[C@@H](O)[C@H](O[C@@H]2O[C@@H](C)[C@](O)(C=O)[C@H]2O[C@@H]2O[C@@H](CO)[C@H](O)[C@@H](O)[C@@H]2NC)[C@@H](N/C(N)=N\[H])[C@@H]1O [STREPTOMYCIN]	Not Active	Not Active	Not Active	Not Active	Not Active	Not Active	Not Active	Not Active	Not Active	Not Active	Not Active	Not Active	Not Active	Not Active	–	–	–	–
CC(C)C[C@H](NC(=O)[C@@H](O)[C@H](N)Cc1ccccc1)C(=O)O [UBENIMEX]	Not Active	Not Active	Not Active	Not Active	Not Active	Not Active	Not Active	Not Active	Not Active	Not Active	Not Active	Not Active	Not Active	Not Active	–	–	–	–
Cc1onc(-c2ccccc2)c1-c1ccc(S(N)(=O)=O)cc1 [VALDECOXIB]	Not Active	Not Active	Not Active	Not Active	Not Active	Not Active	Not Active	Not Active	Not Active	Not Active	Not Active	Not Active	Not Active	Not Active	–	–	–	–
CC[C@]1(O)C[C@@H]2CN(CCc3c([nH]c4ccccc34)[C@@](C(=O)OC)(c3cc4c(cc3OC)N(C)[C@H]3[C@@](O)(C(=O)OC)[C@H](OC(C)=O)[C@]5(CC)C=CCN6CC[C@]43[C@@H]65)C2)C1 [VINBLASTINE]	Not Active	Not Active	Not Active	Not Active	Not Active	Not Active	Not Active	Not Active	Not Active	Not Active	Not Active	Not Active	Not Active	Not Active	–	–	–	–
CC(=O)N1CCN(c2ccc(OCC3COC(Cn4ccnc4)(c4ccc(Cl)cc4Cl)O3)cc2)CC1 (stereo not drawn) [KETOCONAZOLE]	–	Not Active	Not Active	Not Active	Not Active	Not Active	Not Active	Not Active	Not Active	Not Active	Not Active	Not Active	Not Active	Not Active	19.8	7.42	–	–
COc1cc(NS(=O)(=O)c2ccc(N)cc2)nc(OC)n1 [SULFADIMETHOXINE]	Not Active	Not Active	Not Active	Not Active	Not Active	Not Active	Not Active	Not Active	Not Active	Not Active	Not Active	Not Active	Not Active	Not Active	–	–	–	–
C[C@]1(Cn2ccnn2)[C@H](C(=O)O)N2C(=O)C[C@H]2S1(=O)=O [TAZOBACTAM]	Not Active	Not Active	Not Active	Not Active	Not Active	Not Active	Not Active	Not Active	Not Active	Not Active	Not Active	Not Active	Not Active	Not Active	–	–	–	–
[Cl-].[Cl-].[Zn+2] [ZINC CHLORIDE]	Not Active	Not Active	Not Active	Not Active	Not Active	Not Active	Not Active	Not Active	Not Active	Not Active	–	Not Active	Not Active	Not Active	–	–	2.19	–
CN1C(C(=O)Nc2ccccn2)=C(O)c2sccc2S1(=O)=O [TENOXICAM]	Not Active	Not Active	Not Active	Not Active	Not Active	–	Not Active	Not Active	Not Active	Not Active	Not Active	Not Active	Not Active	Not Active	–	–	–	1.14
CC(=O)N[C@@H]1[C@H](Oc2c3cc4cc2Oc2ccc(cc2Cl)[C@@H](O[C@@H]2O[C@@H](CO)[C@@H](O)[C@H](O)[C@@H]2NC(C)=O)[C@@H]2NC(=O)[C@H](NC(=O)[C@@H]4NC(=O)[C@H]4NC(=O)[C@@H](Cc5ccc(c(Cl)c5)O3)NC(=O)[C@H](N)c3ccc(O)c(c3)Oc3cc(O)cc4c3)c3ccc(O)c(c3)-c3c(O[C@H]4O[C@H](CO)[C@@H](O)[C@@H](O)[C@@H]4O)cc(O)cc3[C@@H](C(=O)O)NC2=O)O[C@@H](CO)[C@@H](O)[C@@H]1O	Not Active	Not Active	Not Active	Not Active	Not Active	Not Active	Not Active	Not Active	Not Active	Not Active	Not Active	Not Active	Not Active	Not Active	–	–	–	–
COCCCOc1ccnc(C[S+]([O-])c2nc3ccccc3[nH]2)c1C (stereo not drawn) [RABEPRAZOLE]	Not Active	Not Active	Not Active	Not Active	Not Active	Not Active	Not Active	Not Active	Not Active	Not Active	Not Active	Not Active	Not Active	Not Active	–	–	–	–
CO[C@H]1/C=C/O[C@@]2(C)Oc3c(C)c(O)c4c(c3C2=O)C2=NC3(CCN(CC(C)C)CC3)NC2=C(NC(=O)/C(C)=C\C=C\[C@H](C)[C@H](O)[C@@H](C)[C@@H](O)[C@@H](C)[C@H](OC(C)=O)[C@@H]1C)C4=O [RIFABUTIN]	Not Active	Not Active	Not Active	Not Active	Not Active	Not Active	Not Active	Not Active	Not Active	Not Active	Not Active	Not Active	Not Active	Not Active	–	–	–	–
CNC(=C[N+](=O)[O-])NCCSCc1ccc(CN(C)C)o1 [RANITIDINE]	Not Active	Not Active	Not Active	Not Active	Not Active	Not Active	Not Active	Not Active	Not Active	Not Active	Not Active	Not Active	Not Active	Not Active	–	–	–	–
